Here are results for four compounds from patent publication US20250195504A1, “NALTREXAMINE DERIVATIVES BEARING 5-MEMBER HETEROCYCLIC RING SYSTEMS AND OPIOID RECEPTOR MODULATORS” (VIRGINIA COMMONWEALTH UNIVERSITY, priority 2022, published 2025).

As a reminder, the Ki is a dissociation constant, usually derived from enzyme kinetics or from competition with a known ligand. As a reminder, the efflux ratio is a quotient of directional permeabilities that is used to spot active efflux.

Each structure is given as a SMILES string. Where a name gives a salt, the structure may show the parent alone.

Series [1] relates to male Swiss Webster mice. Briefly: warm-water tail immersion (tail flick / tail-withdrawal) assay, antinociception. It is filed as in vivo, mouse. As to conditions: mice. As for the experimental part:
In this assay, the duration for which mice kept their tails in the warm water was recorded.
All thirty-six compounds' antinociception were examined in tail immersion assay first to preclude any opioid receptor agonists.
Swiss Webster mice (six male mice for each group, 25-35 g, 6-8 weeks old) were used in this assay. Antinociception for all compounds was examined in male Swiss Webster mice. […] To prevent tissue damage, a 10 s maximum cutoff time was imposed. Antinociceptive response was calculated as the percentage of maximum possible effect (% MPE), where % MPE=[(test−control latency)/(10−control latency)]×100.
Warm-water tail immersion assay is a well-established assay for evaluating opioid analgesics, especially MOR agonists. […] In this context, all 24 compounds were first evaluated for their acute antinociception tail-withdrawal assay (FIG. 5A).
The tail-withdrawal test was performed using a water bath with the temperature maintained at 56±0.1° C. Baseline latency was measured before any injections. Each mouse was gently wrapped in a cloth with only the tail exposed. The distal one-third of the tail was immersed perpendicularly in water, and the mouse rapidly flicked the tail from the bath was seen as the first sign of discomfort. The duration of time the tail remained in the water bath was counted as the baseline latency. Untreated mice with baseline latency reaction times ranging from 2 to 4 seconds were used. Test latency was obtained 20 min later after each injection. A 10-second maximum cutoff latency was used to prevent any tissue damage. Antinociception was quantified as the percentage of maximal possible effect (% MPE), which was calculated as % MPE=[(test latency−control latency)/(10−control latency)]×100. The % MPE value was calculated for each mouse using 6 mice per group. Testing compounds were given 10 mg/kg (s.c.) to each mouse.

Series [2] has as its target h5-HT1b (Homo sapiens, UniProt P28222). The series can be described thus: side effect profiling, h5-HT1b. The series is classed as binding. As to conditions: for h5-HT1b binding: at 10 uM.
Series [3] deals with hNK1 (Homo sapiens, UniProt P25103). Briefly: side effect profiling, hNK1. It is filed as binding. As to conditions: at 10 uM.
Series [4] has as its target hNOP (Homo sapiens, UniProt P41146). The series can be described thus: side effect profiling, hNOP. Conditions: for hNOP binding: at 10 uM. It is filed as binding.
The target in series [5] is hα1D (Homo sapiens, UniProt P25100). The series can be described thus: side effect profiling, hα1D. It is filed as binding.
Series [6] deals with Serotonin receptor, dopamine receptor, biogenic amine transporters. Briefly: side effect profiling panel binding. As to conditions: up to 10 μM, except the targets listed.
For series [7], the target named is Potassium channel hERG (Homo sapiens, UniProt Q12809). The series can be described thus: side effect profiling, hERG channel. Conditions: for hERG channel binding: at 10 uM. In general terms: The hERG channel carries a current that helps repolarise heart muscle cells.
In series [8] the target is h5-HT2b (Homo sapiens, UniProt P41595). Briefly: side effect profiling, h5-HT2b. As to conditions: at 10 uM. It is filed as binding.
The target of series [9] is hNK3 (Homo sapiens, UniProt P29371). Briefly: side effect profiling, hNK3. It is filed as binding.
Series [10] concerns the target Na channel. Briefly: side effect profiling, Na channel. The series is classed as binding.
Series [11] concerns the target T1, DOR (Homo sapiens, UniProt P41143).
T1 construct: expressed in transfected cells; host or cells: CHO
The series can be described thus: competitive radioligand binding assay, DOR ([3H]diprenorphine, CHO cell membranes). As to conditions: Tables A, B; read-out: Binding Affinity Ki (nM) ± SEM, DOR.

The target in series [12] is MOR (Mus musculus, UniProt P42866). Conditions: read-out: Binding Affinity Ki (nM) ± SEM, MOR; Tables A, B.
Series [13] can be described thus: Caco-2 permeability. Conditions: human, Caco-2, pH 7.4. On the technique in general: Caco-2 cells form a polarised layer with tight junctions and transporters.
The target in series [14] is KOR (Mus musculus, UniProt P33534). Briefly: competitive radioligand binding assay, KOR ([3H]diprenorphine, CHO cell membranes). As to conditions: Tables A, B; read-out: Binding Affinity Ki (nM) ± SEM, KOR. On the set-up: expressed in transfected cells; host or cells: CHO.

Regarding `O=C(N[C@H]1CCC2(O)C3Cc4ccc(O)c5c4[C@@]2(CCN3CC2CC2)[C@H]1O5)c1ccc[nH]1` (stereo partly drawn) [Example 1 compound 1, 17-Cyclopropylmethyl-3,14β-dihydroxy-4,5α-epoxy-6a-[(2′-pyrrolyl)carboxamido]morphinan hydrochloride], the “Tail flick assay, anti-nociceptive effect (in words)” value in series [1] (single dose, dose printed with the value) is listed as “No anti-nociceptive effect up to 100 mg/kg”. For the same compound, in series [2], the inhibitory constant (Ki) worked out at 482 nM and the h5-HT1b binding is given as 85%. In addition, the hNK1 binding in series [3] turned out to be 89%. In series [4], the affinity, expressed as Ki, was 1.44 µM and the hNOP binding is recorded as 59%. Further, in [5], the inhibition constant (Ki) is 771 nM. In [5] (at 10 uM), this compound yielded a hα1D binding of 84%. Besides, in series [6], the “side effect profiling, binding to panel” value was “No significant binding up”. For the same compound, in [7], the affinity, expressed as Ki, was 8.6 µM and the hERG channel binding result is reported as “Potassium channel hERG (52% at 10 uM),”.

`O=C(N[C@H]1CC[C@@]2(O)[C@H]3Cc4ccc(O)c5c4[C@@]2(CCN3CC2CC2)[C@H]1O5)c1cccs1` [Example 1 compound 25, 17-Cyclopropylmethyl-3,14β-dihydroxy-4,5α-epoxy-6α-(2′-thienylcarboxamido)morphinan hydrochloride]: the “Tail flick assay, percentage maximum possible effect (% MPE)” value in [1] (single dose 10 mg/kg) is recorded as “effect (% MPE) of NAT (10 mg/kg) was 15.2”. In addition, the h5-HT2b binding entry in series [8] was “h5-HT2b (78% at 10 uM)”. Further, the Ki amounted to 3.9 µM in [9], 6.4 µM in [4] and 9.9 µM in series [10]. The hNK3 binding in series [9] (at 10 uM) turned out to be 56%. This compound also showed a hNOP binding in series [4] of 60%. The Na channel binding in series [10] (at 10 uM) is 55%.

For the compound `O=C(N[C@H]1CC[C@@]2(O)[C@H]3Cc4ccc(O)c5c4[C@@]2(CCN3CC2CC2)[C@H]1O5)c1ccsc1` [Example 1 compound 31, 17-Cyclopropylmethyl-3,14β-dihydroxy-4,5α-epoxy-6α-(3′-thienylcarboxamido)morphinan hydrochloride], the h5-HT1b binding result in series [2] is given as “h5-HT1b (98% at 10 uM)”. Moreover, the hNK1 binding result in series [3] was “hNK1 (80% at 10 uM)”. In addition, in series [7], the hERG channel binding result is listed as “hERG channel (58% at 10 uM)”.

Take `O=C(N[C@H]1CC[C@@]2(O)[C@H]3Cc4ccc(O)c5c4[C@@]2(CCN3CC2CC2)[C@H]1O5)c1nccs1` [NTZ, 17-Cyclopropylmethyl-3,14β-dihydroxy-4,5α-epoxy-6α-(2′-thiazolylcarboxamido)morphinan hydrochloride]: the results for the Ki in series [11], in series [12] and in series [14] were 41.1 ± 3.58 nM, 0.25 ± 0.03 nM and 1.3 ± 0.12 nM, respectively. For the same compound, the efflux ratio at 1 h, 10 μM in [13] amounted to 2.5. For the same compound, the “side effect profiling, binding to panel” value in series [6] is “No significant binding up”.
